Results taken from a melting point compilation (Tetko et al.; mined from patent text by program, amines drawn as free bases though some values may be those of a salt).

| Structure (SMILES) | melting point [°C] |
| --- | --- |
| Nc1c(CCO)cccc1C(=O)c1ccc(Cl)cc1 | 111 to 126 |
| Cc1cc(C(=O)NC2=NC(C)(C)CC2(c2ccccc2)c2ccccc2)[nH]n1 | 193 to 195 |
| Oc1cc(Br)ccc1/C=N/c1ccccc1 | 129 |
| O=C1NCCc2cc(Br)ccc21 | 137 to 139 |
| CCOCc1nc(N)c2nccnc2n1 | 152 to 154 |
| CSc1ncnn1C[C@]1(c2ccc(F)cc2F)O[C@@H]1c1ccccc1Cl (relative stereo) | 116 to 117 |
| O=Cc1c[nH]c2ccc(-c3ccc4[nH]cnc4c3)cc12 | > 280 |
| COc1cccc(Sc2ccc3c(c2)CC[C@H]2NC(=O)CC[C@]32C)c1 | 154 to 156 |
| CC1(C)C2CC[C@@]1(N1CCOCC1)C(=O)C2 | 89.5 to 90.5 |
| COc1cc2cccnc2c(N2CCN([C@H]3CC[C@@H](c4cn(C)c5ccc(C#N)cc54)CC3)CC2)n1 | 230 to 233 |
| CN(C)C1(c2ccccc2)CCC(CNC(=O)N2CCC(c3c[nH]c4ccc(F)cc34)CC2)CC1 (stereo not drawn) | 95 to 98 |
| CS(=O)(=O)Nn1c(=O)[nH]c2cc(C(F)(F)F)c(-n3cnc(C(F)(F)F)c3)cc2c1=O | 144 to 147 |
| O=c1ccc2cc(OC3CCC4(CCNCC4)CC3)ccc2o1 | 193 to 194 |
| Cc1cc(C(=O)O)ncc1C(c1cc(F)ccc1F)S(=O)(=O)c1ccc(Cl)cc1 (stereo not drawn) | 208 to 209 |
| Cc1sc(-c2ccccc2)nc1COc1ccc(Cn2cc(CCC(=O)O)c(-c3ccccc3)c2)cc1 | 157 to 158 |
| c1cc(P(CCP(c2ccncc2)c2ccncc2)c2ccncc2)ccn1 | 183 to 185 |
| Cc1ccc2c(c1)c1c(n2Cc2ccc(F)cc2)CCCC1=O | 210 |
| CC(C)(C)OC(=O)N1CC[C@H](O)[C@H]1C(=O)O | 156 to 157 |
| c1ccc(-c2ccnc3ncnn23)cc1 | 140 |
| CNC(=S)Nc1nc(C(C)c2ccc(-c3ccccc3)c(F)c2)cs1 (stereo not drawn) | 180 to 181 |
| O=C(c1cc(C(F)(F)F)cc(C(F)(F)F)c1)N1CCC2(CC1)C(=O)N(c1cc(Cl)ncn1)CN2c1ccccc1 | 212 to 214 |
| O=C(c1ccncc1)N1CCN(Cc2ccc3c(c2)Cc2c(-c4ccsc4)n[nH]c2-3)CC1 | 218 to 220 |
| NCC1Cc2cc(-c3ccccc3)cc(-c3cccc(F)c3)c2O1 (stereo not drawn) | > 250 |
| CCCCCCCCCCCCCCCCS(=O)(=O)Nc1cccc(C(=O)CBr)c1 | 92 to 95 |
| CC(C)(C)OC(=O)NC1CC=CC1 | 68 to 70 |
| O=S(=O)(c1ccc(-c2ccc(C(O)CCl)cc2)cc1)C(F)F (stereo not drawn) | 104 to 107 |

| Structure (SMILES) | melting point [°C] |
| --- | --- |
| O=C(O)c1c[nH]c(Sc2cccc(Cl)c2)c1 | 134 to 137 |
| O=C(O)c1ccc(COCc2csc3nc(C(=O)NCc4ccc(F)c(Cl)c4)[nH]c(=O)c23)cc1 | 228 to 230 |
| CC1=Nc2c(C)nn(CC(F)(F)F)c2C2=NC(C)CN12 (stereo not drawn) | 91 to 95 |
| Nc1cc(F)cc2c(Cl)ccnc12 | 98 to 103 |
| CCOC(=NC(=O)Nc1ccc(OC(F)(F)F)cc1)c1c(F)cccc1F | 98 to 100 |
| COc1cc(C)c(OCCCC(C)(C)C(=O)O)cc1C | 85 to 86 |
| O=C1CC(=O)CC(CC2CCOCC2)C1 | 129 to 130 |
| CCOc1ccccc1C(=O)SSc1ccc([N+](=O)[O-])cc1C(Cl)(Cl)Cl | 79 to 80 |
| CCc1sc(-c2cc[nH]n2)c2c1C(=O)CC(C)(C)C2 | 152 to 155 |
| Cc1cc2cc(CN3CCCC3)cnc2cc1NC(=O)c1ccc(-c2ccsc2)cc1 | 187 |
| CC1(CO)OCC2(CO1)COC(C)(CO)OC2 (stereo not drawn) | 127 to 128 |
| N#CCc1cc2ccccc2s1 | 59 to 61 |
| CC(C)(C)c1cc(CCc2ccccc2NC(=O)NC23CC4CC(CC(C4)C2)C3)cc(C(C)(C)C)c1O | 197 to 199 |
| CC(C)(C)NNC(=O)C(C)(C)C | 97 to 105 |
| O=C(NCC(F)(F)F)c1cccc(-c2nc(=O)c3ccccc3s2)n1 | 243 to 244 |
| c1cnc2ccc(Cn3nnc4ccc(-c5cnn(C6CCOCC6)c5)nc43)cc2c1 | 182 to 184 |
| O=c1c[n+]([O-])c2cc(Cl)c(Cl)cc2[nH]1 | 278 to 280 |
| CC(=O)c1ccc(OCCCC(=O)O)c(C)c1 | 114 to 116 |
| CCc1cc(Br)c2c(c1)NC(=O)C2=O | 219 to 220 |
| COc1ccc(Cl)c(Oc2c(Cl)nc(C)nc2NS(=O)(=O)c2ccc(C(C)(C)C)cc2)c1 | 182 |
| CCCCCCCCCCCCCCCCN(c1ccccc1)S(=O)(=O)c1ccc(Nc2cc(=O)n(-c3c(C)cc(Cl)cc3Cl)n2C(=O)OCC)cc1 | 85 |
| Nc1ccccc1CCN1CCN(c2ccccc2)CC1 | 103 |
| N#Cc1cnn2c(-c3cccc(F)c3)ccnc12 | 222 to 224 |
| CCOC(=O)N1c2ccc(C(F)(F)F)cc2[C@@H](NC(=O)OC)C[C@H]1CC | 157 to 158 |
| COC(=O)C1=C(C)NC(=O)N(C(=O)OC(C)C)C1c1cccc(Cl)c1Cl (stereo not drawn) | 162 to 163 |
| Cc1cccc(-c2nc3cccnn3c2-c2ccnc(NC(=O)N3CCCCC3)c2)c1 | 173 to 175 |

| Structure (SMILES) | melting point [°C] |
| --- | --- |
| Cc1ncc2c(c1O)COC2S(C)(=O)=O (stereo not drawn) | 205 to 206 |
| Cc1cc(C(O)(C(F)(F)F)C(F)(F)F)cc(C)c1SCC(=O)O | 133 to 135 |
| CN1C(=O)Cc2cc(C3=NNC(=O)C4CC34)ccc21 (stereo not drawn) | 265 to 267 |
| CN(C)CCOc1ccc(Nc2nccc(-c3cccnc3)n2)cc1 | 108 to 110 |
| CC(C)(C)c1ccc2c(c1)ncn2-c1cccc(Br)n1 | 98 to 100 |
| COC(OC)c1cnc(N2C(=O)c3ccccc3C2=O)c(C#N)n1 | 115 to 116 |
| CCOC(=O)C(=C1CCCN1C)c1cc(OC)c(OC)c(OC)c1 | 115 to 116 |
| COc1ccc(N2CCN(c3cc4c(c(C)c3C)OC(C)(C)C4)CC2)cc1 | 180 to 182 |
| CS(=O)(=O)NCCCc1c[nH]c(-c2ccc(F)cc2)c1-c1ccncc1 | 210 to 214 |
| NC(=NCC(F)(F)F)Nc1ccnc(SCCCC2=NCCN2)n1 | 184 to 186 |
| Nc1c(F)c(N2CCNCC2)cc2c1c(=O)c(C(=O)O)cn2C1COC1 | 244 to 246 |
| O=C1CC[C@@H](C(=O)N[C@@H](Cc2c[nH]cn2)C(=O)N[C@@H](Cc2c[nH]c3ccccc23)C(=O)OCc2ccccc2)N1 | 250 to 252 |
| CN(CCOc1ccc(CO)cc1)c1ncccn1 | 73 to 74 |
| Cc1ccc(-c2ccc([C@H](C)N3CC[C@](CC(C)(C)O)(c4ccccc4)OC3=O)cc2)nn1 | 150 to 152 |
| O=c1nc(-c2ccc(N3CCCC3)nc2)sc2ccccc12 | 221 to 223 |
| COC(=O)C1Cc2c([nH]c3ccccc23)C(c2ccc(Cl)c(Cl)c2)N1C(=O)CCl (stereo not drawn) | 163 to 165 |
| Cc1cc(=O)oc2cc(OS(N)(=O)=O)ccc12 | 161 to 164 |
| NC(=O)c1cc(Cl)c(F)c(Cl)c1F | 145 to 147 |
| N#CC(C(=O)OC1CCCCC1)=C1Nc2ccccc2O1 | 143 to 145 |
| COC(=O)NC(=O)NS(=O)(=O)c1ccc([N+](=O)[O-])cc1 | 150 to 158 |
| CCOc1sc(C(=O)O)c2c1-c1c(cnn1C)CC2 | 258 to 260 |
| O=C(Cc1cccc(C(F)(F)F)c1)c1c(O)c2cccnc2n(-c2ccccc2)c1=O | 201 to 203 |
| CC1C(=O)NC(C)(C)N1C(=O)CNC(=O)CN1CC(O)CC1=O (stereo not drawn) | 218 to 220 |
| O=C(NC(=O)N1CCC(Cc2ccccc2)CC1)c1ccc2[nH]c(=O)oc2c1 | 174 |
| CC(=C(C#N)N=CN(C)C)N1CCCC1 | 49 to 53 |
| O=[N+]([O-])c1cccc(N2N=C(O)c3ccccc3C2CCO)c1 (stereo not drawn) | 164 to 165 |

| Structure (SMILES) | melting point [°C] |
| --- | --- |
| Cc1nc2sccn2c(=O)c1CCN1CCC(c2noc3cc(F)ccc23)CC1 | 165 |
| CS(=O)(=O)c1ccc(-c2nn(CC3CC3)c(=O)cc2-c2ccc(F)cc2)cc1 | 124 |
| Nn1ncc2c1-c1cc3ccccc3nc1CC2 | 235 |
| COC(=O)NCC1CC(c2ccccc2)=NO1 (stereo not drawn) | 102 to 103 |
| COC(=O)c1cccc(-c2cc(CCNC(=O)C3CCC3)c3cc(OC)ccc3c2)c1 | 128 to 130 |
| CCc1c2ccccc2nc2c1c(C)nn2-c1ccccn1 | 112 to 114 |
| CCCc1cccnc1N | 25 to 27 |
| COc1ccc(S(=O)(=O)N(Cc2cccnc2)c2c(C(=O)O)cnc3c2c(C)nn3C)cc1 | 256 to 258 |
| COc1nnc(C)c(-c2ccc(Cl)nc2)c1-c1c(F)cc(F)cc1F | 123 to 124 |
| NC(=O)c1cc2c(c3nc(O)c(O)nc13)CCCC2 | > 300 |
| COc1ccc(S(=O)(=O)Nc2nc(-c3cccc([N+](=O)[O-])c3)c(CN3CCOCC3)s2)cc1OC | 143 |
| CCOC(=O)c1cc(=O)c2cccc(COc3ccc(OCc4ccc5ccccc5n4)cc3)c2o1 | 124 to 127 |
| CC1CN(c2ncc(C(=O)N(c3cccc(C(F)(F)F)c3)C3CCCC3)c(N)n2)C(=O)N1 (stereo not drawn) | 219 to 220 |
| CCOC(=O)CC(=O)N(C)c1ccc(Cl)cc1[N+](=O)[O-] | 45 to 47 |
| N=C(N)Nc1nc(CSCCNc2ncc(Cc3ccc(Cl)cc3)c(=O)[nH]2)cs1 | 205 to 207 |
| COc1cccc2nc3[nH]c(=O)[nH]c3cc12 | > 300 |
| COC(=N)COc1ccc(OC)cc1 | 95 to 96 |
| CCn1cnc(/C=C/c2cn(-c3ccccc3)nc2OCc2ccc(OCc3nc(-c4ccc(CC(=O)O)cc4)oc3C)c(OC)c2)c1 | 194 to 196 |
| COC(=O)c1cc2nccnc2cc1NC(=O)OC(C)(C)C | 196 to 198 |
| COC(=O)[C@H](O)[C@@H](N)c1ccccc1 | 101 |
| CN(C)CCc1c[nH]c2ccc(C#CCOCc3ccccc3)cc12 | 93 to 95 |
| Cc1ncccc1Cn1nnnc1-c1cccc(Cl)c1Cl | 121 to 122 |
| CCn1c2c(c3ccccc31)Cc1c(CO)c(CO)c(C)n1C2 | 216 to 217 |
| O=C(c1cccnc1)c1cc2cc(Br)ccc2s1 | 147 to 148 |
| CSc1cc(C)nc(SC)c1NC(=O)CN1CCN(CCSc2nc3ccccc3s2)CC1 | 136 to 139 |
